Consider 7 molecules from patent US10787640B2, “Producing mesodermal cell types and methods of using the same” (The Board of Trustees of the Leland Stanford Junior …, priority 2015, dated 2020).

Assay type in all cases: cell-based, human
The test system of assay [1] is hESC-derived primitive streak. The assay is described as follows: Paraxial versus lateral/cardiac mesoderm specification from primitive streak. To be noted: for paraxial mesoderm induction (qPCR day 2): ACF with DMH1 1 μM or LDN193189 250 nM, CDF with SB-505124 2 μM or A-83-01 1 μM, 24 hours. Here is the method: Subsequently, day 1 anterior primitive streak was briefly washed (DMEM/F12) and differentiated towards day 2 paraxial mesoderm for 24 hours (1 μM A-83-01+3 μM CHIR99021+250 nM LDN-193189+20 ng/mL FGF2). Separately, day 1 mid primitive streak was differentiated towards day 2 lateral mesoderm for 24 hours (1 μM A-83-01+30 ng/mL BMP4+1 μM C59; with 2 μM SB-505124 sometimes used instead of A-83-01).
B) To assess whether FGF/ERK signaling was permissive for both paraxial and lateral/cardiac mesoderm specification, hESCs were differentiated into primitive streak for 24 hours, and then transferred into (i) A-83-01+DM3189 (“AD”; permissive for paraxial mesoderm) or (iii) A-83-01+BMP4+C59 (“AB+C59”; permissive for lateral/cardiac mesoderm) for 24 hours in the presence or absence of a FGF agonist (FGF2, 10-20 ng/mL), an FGFR inhibitor (PD173074, 100 nM) or a MAPK/ERK inhibitor (PD0325901, 500 nM) for 24 hours and qPCR for all experiments was conducted on day 2 (that is, after 48 total hours of hESC differentiation). To assess whether TGFβ signaling altered paraxial, intermediate and lateral/cardiac mesoderm specification, hESCs were differentiated into primitive streak for 24 hours, and then transferred into (ii) DM3189+FGF2 (“DF”; permissive for paraxial mesoderm) or (iv) BMP4+C59 (“B+C59”; permissive for lateral/cardiac mesoderm) for 24 hours in the presence of a TGFβ agonist (Activin, 10-25 ng/mL) or a TGFβR inhibitor (A-83-01, 1 μM) for 24 hours or (v) BMP4 (3 ng/mL)+FGF2 (20 ng/mL) (“B3F20”) for 24 hours in the presence of a TGFβ agonist (Activin, 3-25 ng/mL) or a TGFβR inhibitor (A-83-01, 1 μM) and qPCR for all experiments was conducted on day 2 (that is, after 48 total hours of hESC differentiation). […] Therefore, hESCs were differentiated towards primitive streak for 24 hours, and then subsequently transferred into (i) A-83-01+CHIR99021+FGF2 (ACF) in the presence or absence of one of two BMPR inhibitors (DMH1, 1 μM or LDN193189, 250 nM) for 24 hours and qPCR was conducted on day 2. Alternately, hESC-derived PS was transferred into (ii) CHIR99021+DM3189+FGF2 (CDF) for 24 hours in the presence or absence of a TGFβ agonist (25 ng/mL Activin) or one of two TGFβR inhibitors (SB-505124, 2 μM or A-83-01, 1 μM) for 24 hours and qPCR was conducted on day 2. […] E) To test the role of FGF in lateral mesoderm induction (on day 2 of hESC differentiation), NKX2.5-GFP hESCs were differentiated into mid primitive streak for 24 hours, and then were treated with BMP4+C59+SB505124 in the presence of an FGF agonist (FGF2, 20-50 ng/mL) or a FGFR inhibitor (PD173074, 100 nM) or a MAPK/ERK inhibitor (PD0325901, 500 nM) for 24 hours, and then all cultures were treated with BMP4+C59+SB505124+FGF2 for 24 hours more before being harvested on day 3 for FACS.
Background: In qPCR the cycle at which signal appears reflects the starting amount.

The test system of the next assay is day 2 paraxial mesoderm. As to the kind of experiment: Early somite progenitor formation from paraxial mesoderm, qPCR. The conditions noted are these: 24 hours.
The test system of the next assay is hESCs. The assay is described as follows: Primitive streak (PS) induction from hESCs, qPCR. Here is the method: As aforementioned, after overnight plating, hPSCs were briefly washed (with DMEM/F12) and then differentiated into either anterior primitive streak (30 ng/mL Activin A+4 μM CHIR99021+20 ng/mL FGF2+100 nM PIK90; for subsequent paraxial mesoderm induction) or mid primitive streak ([…] Activin A+40 ng/mL BMP4+6 μM CHIR99021+20 ng/mL FGF2+100 nM PIK90; for subsequent cardiac mesoderm induction) for 24 hrs.
Total cDNA was diluted 1:10-1:30 in H2O and qPCR was performed with the SensiFAST SYBR Lo-ROX Kit (Bioline) with 10 μL qPCR reactions per well in a 384-well plate: 5.0 μL 2× qPCR Master Mix+4.6 μL cDNA (totaling ˜120 ng of cDNA)+0.4 μL of 10 μM primer stock (5 μM forward+5 μM reverse primers). In general, gene-specific primer pairs were tested for (1) specificity of amplicon amplification (only one peak on a dissociation curve) and (2) linearity of amplicon amplification (linear detection of gene expression in cDNA samples serially diluted seven times over two orders of magnitude, with 90-110% efficiency of amplification deemed acceptably linear). After qPCR plates were prepared by arraying sample-specific cDNAs and gene-specific primers, they were sealed and briefly centrifuged (5 mins). 384-well qPCR plates and their adhesive sealing sheets were obtained from Thermo (AB1384 and AB0558, respectively). qPCR plates were run on a 7900HT Fast Real-Time PCR System (Applied Biosystems) with the following cycling parameters: initial dissociation (95° C., 2 mins) followed by 40 cycles of amplification and SYBR signal detection (95° C. dissociation, 5 seconds; 60° C. annealing, 10 seconds; followed by 72° C. extension, 30 seconds), with a final series of steps to generate a dissociation curve at the end of each qPCR run. During qPCR data analysis, the fluorescence threshold to determine Ct values was set at the linear phase of amplification; other qPCR data analysis methods including qPCR heatmap generation using the GenePattern platform (Broad Institute) were described previously by Loh et al., 2014, the disclosure of which is incorporated herein by reference in its entirety.
E) To assess whether inducing PS in the presence of TGFβ signaling altered its downstream potential to form different kinds of mesoderm, (i) H7 hESCs were differentiated into PS with CHIR99021+FGF2+PIK90 (CFK) for 24 hours in the presence or absence of increasing amounts of Activin (10-100 ng/mL), and then were transferred into paraxial mesoderm induction conditions (A-83-01+CHIR99021+DM3189+FGF2) for 24 hrs, and qPCR was conducted or (ii) H7 hESCs were differentiated into PS with BMP4 (10 ng/mL)+CHIR99021+FGF2+PIK90 (B10CFK) for 24 hours in the presence or absence of increasing amounts of Activin (10-100 ng/mL), and then were transferred into lateral/cardiac mesoderm inductions (A-83-01+BMP4+C59) for 24 hours and qPCR was conducted. […] F) To assess whether inducing PS in the presence of BMP signaling altered its downstream potential to form different kinds of mesoderm, H7 hESCs were differentiated into PS with Activin (10 ng/mL)+CHIR99021+FGF2+PIK90 (A10CFK) for 24 hours in the presence of absence of increasing amounts of BMP4 (1-40 ng/mL), and then were (i) transferred into paraxial mesoderm induction conditions (A-83-01+CHIR99021+DM3189+FGF2) for 24 hrs, and qPCR was conducted or were (ii) transferred into lateral/cardiac mesoderm inductions (A-83-01+BMP4+C59) for 24 hours and qPCR was conducted. […] G) H7 hESCs were differentiated into anterior primitive streak (30 ng/mL Activin+4 μM CHIR99021+20 ng/mL FGF2+100 nM PIK90) in the presence or absence of BMP4 (10 ng/mL) for 24 hours, and then transferred into paraxial mesoderm induction conditions for 24 hours before TBX6 immunostaining was conducted. […]

A further assay has as its system lateral mesoderm. As to the kind of experiment: Forelimb versus hindlimb progenitor specification from lateral mesoderm. To be noted: for competence of lateral mesoderm for forelimb fate: lateral mesoderm induced in presence of retinoid antagonists. Here is the method: Undifferentiated hPSCs (wild-type H7 as well as TBX5-Venus V19-2 H9 hESCs) were maintained in mTeSR1 media on Geltrex-coated plates. As described, they were differentiated into mid primitive streak for 24 hours (D0-1; 30 ng/mL Activin+40 ng/mL BMP4+6 μM CHIR99021+20 ng/mL FGF2+100 nM PIK90) and subsequently differentiated into lateral mesoderm (D1-2; 1 μM A-83-01+30 ng/mL BMP4+1 μM C59), with the inclusion of 50 nM of TTNPB or 2 μM ATRA on D1-2 for trunk lateral mesoderm that was subsequently competent for forelimb differentiation.
Day 2 trunk lateral mesoderm was differentiated into day 3 forelimb progenitors (D2-3; 1 μM A-83-01+1 μM DMH1+3 μM CHIR99021). By contrast, day 2 non-trunk lateral mesoderm was differentiated into day 3 hindlimb progenitors (D2-3; 25 ng/mL Activin+1 μM DMH1+3 μM CHIR99021).

Protocol for day 2 paraxial mesoderm: Day 2 paraxial mesoderm was briefly washed (DMEM/F12) and further differentiated into day 3 early somite/somitomere precursors for 24 hours (1 μM A-83-01+250 nM LDN-193189+1 μM C59+500 nM PD0325901). Subsequently, day 3 early somites were dorsoventrally patterned into either ventral somites/sclerotome (5 nM 21K+1 μM C59) or dorsal somites/dermomyotome (3 μM CHIR99021+150 nM Vismodegib). Sclerotome induction was conducted for 48-72 hours (leading to day 5-6 ventral somite progenitors). For dermomyotome induction, sometimes dermomyotome was induced in the presence of 50 ng/mL BMP4 to upregulate PAX7 after 48 hours of BMP4+CHIR99021+Vismodegib differentiation (leading to day 5 dermomyotome progenitors). Media was changed 24 hours for all steps.

Turning to `Cl.c1ccc2c(-c3cnn4cc(-c5ccc(N6CCNCC6)cc5)cnc34)ccnc2c1` [LDN193189, 4-[6-[4-(1-Piperazinyl)phenyl]pyrazolo[1,5-a]pyrimidin-3-yl]-quinoline hydrochloride], in assay [1], the “paraxial mesoderm induction (qPCR day 2)” value is listed as “serve to induce paraxial mesoderm”. Besides, in the assay with day 2 paraxial mesoderm (CPR with DM3189 250 nM), the “early somite marker expression (qPCR day 3)” value (“early somite marker expression” below) is on record as “permissive for expression of early somite markers”. The “PS formation and anterior-posterior patterning” value in the assay on hESCs (ACFK with LDN193189 250 nM or BMP4 3-100 ng/mL) is listed as “fully abolished PS formation”.

Turning to `Cc1ccc(C2=CCC(C)(C)c3ccc(C#Cc4ccc(C(=O)O)cc4)cc32)cc1` [AGN193109], the “competence of lateral mesoderm for forelimb fate” value with lateral mesoderm is listed as “incompetent to subsequently assume a forelimb fate”.

As for `CC(C)Oc1ccc(-c2cnc3c(-c4ccnc5ccccc45)cnn3c2)cc1` [DMH1, 4-[6-[4-(1-Methylethoxy)phenyl]pyrazolo[1,5-a]pyrimidin-3-yl]-quinoline], the “paraxial mesoderm induction (qPCR day 2)” value in assay [1] is “serve to induce paraxial mesoderm”.

Turning to `Cc1cccc(-c2nn(C(=S)Nc3ccccc3)cc2-c2ccnc3ccccc23)n1` [A-83-01, 3-(6-Methyl-2-pyridinyl)-N-phenyl-4-(4-quinolinyl)-1H-pyrazole-1-carbothioamide], in assay [1], the “paraxial mesoderm induction (qPCR day 2)” value was “serve to induce paraxial mesoderm”. Further, the “NKX2.5-GFP+ cardiac mesoderm induction (FACS day 3)” value in assay [1] (BMP4 (50 ng/mL)+C59, 48 hours, SB-505124 2 μM or A-83-01 1 μM, P<0.01) is reported as “increased NKX2.5-GFP^+ cardiac mesoderm induction”. In addition, the “early somite marker expression” value with day 2 paraxial mesoderm (CDPR with A-83-01 1 μM) is reported as “permissive for expression of early somite markers”. For the same molecule, the PS differentiation entry in the assay with hESCs (CHIR99021+20 ng/mL FGF2+100 nM PIK90 with 2 μM SB-505124 or 1 μM A-83-01) was “strongly impairs PS differentiation”.

As to `CC1(C)CC=C(C#Cc2ccccc2)c2cc(/C=C/c3ccc(C(=O)O)cc3)ccc21` [BMS493], the “competence of lateral mesoderm for forelimb fate” value in the assay on lateral mesoderm was “incompetent to subsequently assume a forelimb fate”.

Consider `CC1=C(/C=C/C(C)=C/C=C/C(C)=C/C(=O)O)C(C)(C)CCC1` [all-trans retinoic acid], for which the “forelimb transcription factor TBX5 expression on D3” value with lateral mesoderm (RA signaling activated for 24 hours during lateral mesoderm induction (D1-2)) is “paramount for lateral mesoderm to subsequently express key forelimb transcription factor TBX5”. Further, the “early somite marker expression” value in the assay on day 2 paraxial mesoderm (ACDP with RA 0.5-2 μM) was “dispensable for the expression of early somite markers”; with day 2 paraxial mesoderm (ACDP with RA 0.5-2 μM, listed as RA), “dispensable for early somite formation”.

B1: WNT3A: Wnt agonist, WNT family ligand (protein, UniProt P56704 19-352, looked up)
Protein Wnt-3a: SYPIWWSLAVGPQYSSLGSQPILCASIPGLVPKQLRFCRNYVEIMPSVAEGIKIGIQECQHQFRGRRWNCTTVHDSLAIFGPVLDKATRESAFVHAIASAGVAFAVTRSCAEGTAAICGCSSRHQGSPGKGWKWGGCSEDIEFGGMVSREFADARENRPDARSAMNRHNNEAGRQAIASHMHLKCKCHGLSGSCEVKTCWWSQPDFRAIGDFLKDKYDSASEMVVEKHRESRGWVETLRPRYTYFKVPTERDLVYYEASPNFCEPNPETGSFGTRDRTCNVSSHGIDGCDLLCCGRGHNARAERRREKCRCVFHWCCYVSCQECTRVYDVHTCK
B1: the “PS marker expression (qPCR)” value with hESCs (24 hours in A3B3F20, 300 ng/mL WNT3A or 0.5-8 μM CHIR99021) was “broadly induces both anterior (TBX6) and mid/posterior (FOXF1, MESP1) PS markers”.
